Tests used:
Cavia porcellus [1] = organism: Cavia porcellus; assay: Shift in the activity was determined; ns= no significant shift observed with 1000 nM CTAP used as a mu antagonist; assay type: functional
Cavia porcellus [2] = organism: Cavia porcellus; assay: Ability to inhibit the electrically evoked contraction of the guinea pig ileum(GPI) of the Compound was determined; assay type: functional
[3] = target: Kappa-type opioid receptor (Cavia porcellus, UniProt P41144); assay: Binding affinity towards Opioid receptor kappa 1 in guinea pig brain using [3H]U-69593 as radioligand.
Mu-type opioid receptor = Mu-type opioid receptor (Cavia porcellus, UniProt P97266); assay: Binding affinity towards Opioid receptor mu 1 in guinea pig brain using [3H]DAMGO as radioligand.
[4] = Compound was evaluated for its receptor binding affinity at [3H]cyclo[D-pen2,p-cl-Phe4,D-Pen5](delta receptor) to opioid receptor in guinea pig brain

Chain of Kappa-type opioid receptor (P41144 whole entry): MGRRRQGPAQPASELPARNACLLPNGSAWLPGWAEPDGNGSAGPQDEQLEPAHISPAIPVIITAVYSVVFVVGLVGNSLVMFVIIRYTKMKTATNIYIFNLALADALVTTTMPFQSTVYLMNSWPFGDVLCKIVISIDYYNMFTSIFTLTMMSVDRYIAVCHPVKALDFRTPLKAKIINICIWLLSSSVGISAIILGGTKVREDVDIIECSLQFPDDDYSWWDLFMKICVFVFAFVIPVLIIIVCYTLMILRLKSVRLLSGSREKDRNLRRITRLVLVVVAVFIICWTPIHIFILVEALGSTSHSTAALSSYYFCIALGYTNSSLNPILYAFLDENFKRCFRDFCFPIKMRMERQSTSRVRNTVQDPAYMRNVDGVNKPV
Chain of Mu-type opioid receptor (P97266 whole entry): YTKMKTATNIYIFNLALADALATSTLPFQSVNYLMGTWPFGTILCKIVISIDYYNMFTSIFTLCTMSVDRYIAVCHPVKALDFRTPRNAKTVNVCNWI

Structure (SMILES)	IC50 (Cavia porcellus [1])	IC50 (Cavia porcellus [2]) [nM]	IC50 [3] [nM]	IC50 (Mu-type opioid receptor) [nM]	IC50 [4] [nM]
CC[C@H](C)[C@H](NC(=O)[C@H](CCCN=C(N)N)NC(=O)[C@H](CCCN=C(N)N)NC(=O)[C@H](CC(C)C)NC(=O)[C@H](Cc1ccccc1)NC(=O)[C@@H](C)NC(=O)CNC(=O)[C@@H](N)Cc1ccc(O)cc1)C(=O)N[C@@H](CCCN=C(N)N)C(=O)N1CCC[C@H]1C(=O)N[C@@H](CCCCN)C(N)=O	Not Active	8.1	0.76	260	–
CC[C@H](C)[C@H](NC(=O)[C@H](CCCN=C(N)N)NC(=O)[C@H](CCCN=C(N)N)NC(=O)[C@H](CC(C)C)NC(=O)[C@H](Cc1ccccc1)NC(=O)[C@H](C)NC(=O)CNC(=O)[C@@H](N)Cc1ccc(O)cc1)C(=O)N[C@@H](CCCN=C(N)N)C(=O)N1CCC[C@H]1C(=O)N[C@@H](CCCCN)C(N)=O	Not Active	1.7	1.1	210	–
CC[C@H](C)[C@H](NC(=O)[C@H](CCCNC(=N)N)NC(=O)[C@H](CCCNC(=N)N)NC(=O)[C@H](CC(C)C)NC(=O)[C@H](Cc1ccccc1)NC(=O)CNC(=O)CNC(=O)[C@@H](N)Cc1ccc(O)cc1)C(=O)N[C@@H](CCCNC(=N)N)C(=O)N1CCC[C@H]1C(=O)N[C@@H](CCCCN)C(N)=O	Not Active	–	–	–	25.5
